Test systems include UACC-257 melanoma; HCT-116 colon; SF-295 CNS; OVCAR-8 ovarian; HCC-2998 colon; SN12C renal; NCI-H226 lung; 786-0 renal; SNB-19 CNS; A498 renal.
Holding throughout (assay): NCI-60 cell line screen, 48 h

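Where inhibition never reached the appropriate level, the endpoint shown equals the highest concentration tested. Otherwise, values were interpolated linearly from a five-concentration, 48-hour dose response in 96-well plates. GI50 is the concentration that inhibits growth by half. TGI marks complete inhibition of growth.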

With `NC(N)=NS(=O)(=O)c1ccc(NC(=O)c2c3ccccc3nc3ccccc23)cc1`, the TGI in the experiment with UACC-257 melanoma, with HCT-116 colon, in the experiment on SF-295 CNS, with OVCAR-8 ovarian, in the experiment with HCC-2998 colon and with SN12C renal was greater than 100 µM each time. Moreover, the TGI in the experiment on NCI-H226 lung, with 786-0 renal, in the experiment with SNB-19 CNS and with A498 renal was greater than 100 µM throughout.
In the case of `CN(C)CCCn1c2c(c3ccncc3c1=O)C(=O)c1ccccc1-2`, the GI50 is 1.68 µM with UACC-257 melanoma; 0.382 µM with HCT-116 colon; 1.06 µM with SF-295 CNS; 0.616 µM in the experiment on OVCAR-8 ovarian; 1.38 µM in the experiment with HCC-2998 colon; 0.958 µM with SN12C renal. The GI50 in the experiment with NCI-H226 lung was 0.466 µM; with A498 renal, 2.15 µM. Also, the TGI with UACC-257 melanoma was 5.22 µM; in the experiment on HCT-116 colon it was 21.8 µM; with SF-295 CNS it was 10.3 µM; in the experiment with OVCAR-8 ovarian, 15.3 µM; with HCC-2998 colon, 5.31 µM; with SN12C renal, 19.1 µM. Further, the TGI in the experiment with NCI-H226 lung is 2.47 µM; in the experiment with A498 renal it was 20 µM.
In the case of `C=CCn1c(=O)c(-c2ccccc2)c(O)c2ccccc21`, the TGI in the experiment with UACC-257 melanoma, in the experiment with HCT-116 colon, with SF-295 CNS, in the experiment with OVCAR-8 ovarian, with HCC-2998 colon and in the experiment on SN12C renal was greater than 100 µM in each case. Also, the TGI in the experiment on NCI-H226 lung, in the experiment with 786-0 renal, with SNB-19 CNS and in the experiment on A498 renal was greater than 100 µM each time.
For the molecule `CCN1CCc2sc3[nH]c(=S)n(C)c(=O)c3c2C1`, the TGI with UACC-257 melanoma, in the experiment on HCT-116 colon, in the experiment with SF-295 CNS, in the experiment on OVCAR-8 ovarian, in the experiment with HCC-2998 colon and in the experiment with SN12C renal was greater than 100 µM each time. Further, the TGI with NCI-H226 lung, in the experiment on 786-0 renal, with SNB-19 CNS and in the experiment with A498 renal was greater than 100 µM in each case.
As for `Nc1nc(NC(=O)C2=NS(=O)(=O)c3cc(S(N)(=O)=O)c(Cl)cc3N2)n[nH]1`, the TGI in the experiment with UACC-257 melanoma, in the experiment on HCT-116 colon, in the experiment on SF-295 CNS, in the experiment on HCC-2998 colon, in the experiment on SN12C renal and in the experiment on NCI-H226 lung was greater than 100 µM in each case. The TGI in the experiment on 786-0 renal, in the experiment with SNB-19 CNS and in the experiment on A498 renal was greater than 100 µM in each case.
Turning to `COC(=O)c1cc(CNCCc2c[nH]c3ccccc23)on1`, the TGI with UACC-257 melanoma, in the experiment with HCT-116 colon, with SF-295 CNS, in the experiment with OVCAR-8 ovarian, in the experiment on HCC-2998 colon and in the experiment on SN12C renal was greater than 100 µM each time. Further, the TGI in the experiment on NCI-H226 lung is greater than 100 µM; in the experiment with 786-0 renal, greater than 94.6 µM; with SNB-19 CNS, greater than 100 µM; with A498 renal, greater than 100 µM.
Consider `CC(=O)NC(Cc1ccccc1)C(=S)N1CCCC1` (stereo unspecified), for which the TGI with UACC-257 melanoma, in the experiment on HCT-116 colon, in the experiment with SF-295 CNS, with OVCAR-8 ovarian, with HCC-2998 colon and in the experiment with SN12C renal was greater than 100 µM in each case. Further, the TGI with NCI-H226 lung, in the experiment on 786-0 renal, in the experiment on SNB-19 CNS and with A498 renal was greater than 100 µM throughout.
Take `Cc1ccc(CCNC(=S)SCC(NC(=O)CCC(N)C(=O)O)C(=O)NCC(=O)O)cc1` (stereo unspecified): the TGI in the experiment with UACC-257 melanoma was 4.47 µM; in the experiment with HCT-116 colon, 6.26 µM; in the experiment with SF-295 CNS, 8.69 µM; with OVCAR-8 ovarian, 4.65 µM; in the experiment with HCC-2998 colon, 3.54 µM; with SN12C renal, 3.84 µM. Further, the TGI in the experiment with NCI-H226 lung turned out to be 4.47 µM; in the experiment with 786-0 renal, 1.6 µM; with SNB-19 CNS, 4.98 µM; with A498 renal, 6.25 µM.
In the case of `CC1(C)CC(=O)C2=C(C1)OC1=C(CC(C)(C)CC1=O)C2c1ccccc1Cl` (stereo unspecified), the TGI with UACC-257 melanoma, with HCT-116 colon, with SF-295 CNS, with OVCAR-8 ovarian, with HCC-2998 colon and in the experiment on SN12C renal was greater than 100 µM each time. Moreover, the TGI in the experiment with NCI-H226 lung, in the experiment on 786-0 renal, with SNB-19 CNS and in the experiment on A498 renal was greater than 100 µM throughout.
Turning to `COc1ccc(N=Nc2ccc3oc(=O)c(C(=O)Nc4ccc(OC)cc4)cc3c2)cc1`, the TGI with UACC-257 melanoma worked out at 73.9 µM; in the experiment on HCT-116 colon it was 23.8 µM; in the experiment on SF-295 CNS it was 51.9 µM; with OVCAR-8 ovarian it was 37.8 µM; with HCC-2998 colon, 45.3 µM; with SN12C renal, 45.2 µM. For the same molecule, the TGI in the experiment with NCI-H226 lung was determined as 32.8 µM; with 786-0 renal, 44.5 µM; with SNB-19 CNS, 83.1 µM; in the experiment on A498 renal it was 9.17 µM.
In the case of `CC(=O)CC(=O)Nn1c(-c2cccs2)nc2ccc(I)cc2c1=O`, the TGI is greater than 100 µM in the experiment with UACC-257 melanoma; greater than 100 µM in the experiment on HCT-116 colon; greater than 100 µM in the experiment on SF-295 CNS; greater than 100 µM in the experiment on OVCAR-8 ovarian; greater than 67.4 µM with HCC-2998 colon; greater than 100 µM with SN12C renal. The TGI with NCI-H226 lung was greater than 76.4 µM; with 786-0 renal, greater than 100 µM; in the experiment on SNB-19 CNS, greater than 100 µM; in the experiment with A498 renal, 43.1 µM. Also, the GI50 with A498 renal was 19.9 µM.
For `COc1cc(OC)cc(N(C)Cc2cnc3nc(N)nc(N)c3c2C)c1`, the TGI in the experiment on UACC-257 melanoma, with HCT-116 colon, with SF-295 CNS, with OVCAR-8 ovarian, in the experiment on HCC-2998 colon and in the experiment with SN12C renal was greater than 100 µM in each case. Further, the TGI with NCI-H226 lung, with 786-0 renal, with SNB-19 CNS and in the experiment with A498 renal was greater than 100 µM in each case.
`Clc1ccc(CCN2CCN(CCCc3ccccc3)CC2)cc1Cl`: the TGI in the experiment with UACC-257 melanoma was 31.3 µM; in the experiment with HCT-116 colon it was 28.4 µM; in the experiment with SF-295 CNS, 30 µM; with OVCAR-8 ovarian it was 30.4 µM; in the experiment with HCC-2998 colon, 31.3 µM; in the experiment with SN12C renal, 29.8 µM. The TGI in the experiment with NCI-H226 lung came out at 38 µM; in the experiment on 786-0 renal, 30.2 µM; in the experiment with SNB-19 CNS, 30.8 µM; in the experiment with A498 renal, 30 µM.

For the origin of these results see PubChem BioAssay (NCI).
